Calls of active or inactive are those of the source. No cut-off for these calls is given here.
Columns and labels:
[1] = tested on: Mycolicibacterium smegmatis; assay: Inhibition of Mycobacterium smegmatis GMC_MDM2 NDH2 in inverted membrane vesicle assessed as inhibition of ATP-driven vesicle acidification by fluorescence based analysis; type: cell membranes
[2] = tested on: Mycolicibacterium smegmatis; assay: Inhibition of Mycobacterium smegmatis NDH2 in inverted membrane vesicle assessed as inhibition of succinate-driven vesicle acidification by fluorescence based analysis; type: cell membranes
[3] = tested on: Mycolicibacterium smegmatis; assay: Inhibition of Mycobacterium smegmatis NDH2 in inverted membrane vesicle assessed as inhibition of […] vesicle acidification by fluorescence based analysis; type: cell membranes
[4] = tested on: Mycolicibacterium smegmatis; assay: Inhibition of Mycobacterium smegmatis NDH2 in inverted membrane vesicle assessed as inhibition of succinate-driven vesicle acidification at >10 uM by fluorescence based analysis; type: cell membranes
[5] = Inhibition of recombinant Mycobacterium smegmatis NDH2 catalytic activity in presence of NADH incubated for 1 min by UV-spectrometric analysis; parameters: species or system Mycolicibacterium smegmatis
[6] = tested on: Mycolicibacterium smegmatis; assay: Inhibition of Mycobacterium smegmatis GMC_MDM2 NDH2 in inverted membrane vesicle assessed as inhibition of ATP-driven vesicle acidification at >10 uM by fluorescence based analysis; type: cell membranes
[7] = tested on: Mycolicibacterium smegmatis; assay: Inhibition of Mycobacterium smegmatis NDH2 in inverted membrane vesicle assessed as inhibition of […] vesicle acidification at up to 120 uM by fluorescence based analysis; type: cell membranes

## Nc1nc(Nc2ccc3nc(-c4ccc(F)cc4)cc(N)c3c2)cc(-c2ccc(Cl)cc2)n1
[1]
  inhibition: Active
[2]
  inhibition: Active
[3]
  inhibition: Active

## O=C(CSc1nc2ccccc2c(=O)[nH]1)NC1CCCCC1
[4]
  inhibition: Active; Compound Showed Partial Inhibition Of Succinate Driven Acidification
[5]
  IC50: 0.023 µM
[1]
  inhibition: Active
[6]
  inhibition: Active; Compound Showed Partial Inhibition Of Atp Driven Acidification

## Nc1nc(Nc2ccc3nc(-c4ccc(F)cc4)cc(N)c3c2)cc(-c2ccc(C(F)(F)F)cc2)n1
[1]
  inhibition: Active
[2]
  inhibition: Active
[3]
  inhibition: Active

## C=C(C)[C@H]1Cc2c(ccc3c2O[C@@H]2COc4cc(OC)c(OC)cc4[C@@H]2C3=O)O1
[7]
  inhibition: inactive
